“And” between values parts separate entries of the source, which are not always exact repeats. Equal entries are not always repeated. Where two headings read alike, the source gives them in different places.
Tests used:
[1] = target: KCNQ4 (Homo sapiens, UniProt P56696); test: TEVC in Xenopus oocytes; type: cell-based; conditions: for Non-normalized tail current V0.5: Ctrl 8.6 ± 4.3; for Normalized tail current V0.5: Ctrl -8.7 ± 0.8
Description: (§4) cRNA transcripts encoding human KCNQ1, KCNQ2, KCNQ3, KCNQ4, KCNQ5, KCNA1, or KCNE1 were generated by in vitro transcription using the T7 polymerase mMessage mMachine kit (Thermo Fisher Scientific), after vector linearization, from complementary DNA (cDNA) sub-cloned into plasmids incorporating Xenopus laevis β-globin 5′ and 3′ untranslated regions flanking the coding region to enhance translation and cRNA stability. cRNA was quantified by spectrophotometry. […] Defolliculated stage V and VI Xenopus laevis oocytes (Ecocyte Bioscience, Austin, TX) were injected with Kv channel α subunit cRNAs (5–10 ng).
(§5) Oocytes were placed in a small-volume oocyte bath (Warner) and viewed with a dissection microscope. Chemicals were sourced from Sigma. Bath solution was (in mM): 96 NaCl, 4 KCl, 1 MgCl2, 1 CaCl2, 10 HEPES (pH 7.6). […] Valeric acid was stored as a 5 mM stock in Ringer’s solution at 4 °C and diluted to working concentrations each experimental day. β-hydroxybutyric acid was stored at 4 °C as a 480 mM stock in 100% ethanol and diluted to working concentrations each experimental day. All compounds were introduced to the recording bath via gravity perfusion at a constant flow of 1 ml per min for 3 min prior to recording. Pipettes were of 1–2 MΩ resistance when filled with 3 M KCl. Currents were recorded in response to pulses between −80 mV and +40 mV at 20 mV intervals, or a single pulse to +40 mV, from a holding potential of −80 mV, to yield current-voltage relationships, current magnitude, and for quantifying activation rate. Deactivation was recorded at −80 mV after a single activating pulse to +40 mV, from a holding potential of −80 mV. […] TEVC data analysis was performed with Clampfit (Molecular Devices) and Graphpad Prism software (GraphPad, San Diego, CA, USA); values are stated as mean ± SEM. Normalized tail currents were plotted versus prepulse voltage and fitted with a single Boltzmann function:1 g=(A1-A2)/1+expV1/2-V∕VS+A2, where g is the normalized tail conductance, A1 is the initial value at −∞, A2 is the final value at +∞, V1/2 is the half-maximal voltage of activation, and VS the slope factor. Activation and deactivation kinetics were fitted with single exponential functions.

[2] = target: KCNQ5 (Homo sapiens, UniProt Q9NR82); test: TEVC in Xenopus oocytes; type: cell-based; conditions: for Slope: Ctrl 9.6 ± 1.9; for Normalized tail current V0.5: Ctrl -41.7 ± 1.5; for Non-normalized tail current V0.5: Ctrl -[…]
Description: as §4, §5

[3] = target: KCNA1 (Kv1.1) (Homo sapiens, UniProt Q09470); test: TEVC in Xenopus oocytes; type: cell-based; conditions: for Slope: Ctrl 6.2 ± 0.4; for Normalized tail current V0.5: Ctrl -29.8 ± 0.69
Chain of KCNA1 (Kv1.1) (Q09470 whole entry): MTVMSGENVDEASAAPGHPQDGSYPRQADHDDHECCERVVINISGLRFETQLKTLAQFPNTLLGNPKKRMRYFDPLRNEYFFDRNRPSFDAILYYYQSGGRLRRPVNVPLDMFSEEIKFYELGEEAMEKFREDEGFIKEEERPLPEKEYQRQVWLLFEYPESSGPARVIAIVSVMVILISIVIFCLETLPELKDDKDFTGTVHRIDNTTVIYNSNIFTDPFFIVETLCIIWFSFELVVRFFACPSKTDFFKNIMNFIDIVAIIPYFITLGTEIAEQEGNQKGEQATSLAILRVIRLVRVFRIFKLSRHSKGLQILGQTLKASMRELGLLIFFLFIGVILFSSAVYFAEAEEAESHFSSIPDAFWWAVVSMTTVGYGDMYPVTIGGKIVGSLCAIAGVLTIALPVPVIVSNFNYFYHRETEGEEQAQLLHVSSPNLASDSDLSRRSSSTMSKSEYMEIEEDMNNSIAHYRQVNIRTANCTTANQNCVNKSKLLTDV
Description: Chemicals were sourced from Sigma.

[4] = target: KCNQ1-KCNE1 (Homo sapiens, UniProt P51787); test: TEVC and resting membrane potential in Xenopus oocytes; type: cell-based
Description: as §4, §5

[5] = system: water-injected Xenopus laevis oocytes; test: TEVC of water-injected oocytes (endogenous currents, EM); type: cell-based
Description: Chemicals were sourced from Sigma. […] […].

[6] = target: T1, KCNQ2/3 channels expressed in CHO cells (Mus musculus, UniProt Q8K3F6+Q9Z351); test: Whole-cell patch clamp of transfected CHO cells; type: cell-based; conditions: 100 µM GABA
T1 construct: expressed in transfected cells; host or cells: CHO cells (ATCC), transient transfection with TransIT-LT1
Procedure: (§1) CHO cells (ATCC) were seeded on poly-L-lysine-treated glass coverslips in 24-well plates and transfected the next day using 0.5 µg each of mouse KCNQ2 and KCNQ3 cDNA in a CMV vector per well in normal media (DMEM with 10% FBS and 1% penicillin/streptomycin). The transfection reagent used was TransIT-LT1 (Mirus Bio LLC, Madison, WI, USA) and cells were patched 48–72 h post transfection. […] Media was replenished every 3 days and cultures were split once a week. […] Cell culture plastic ware and reagents were purchased from VWR and Fisher Scientific unless otherwise stated.
(§2) For both CHO cells and PC12 cells, currents were recorded in whole-cell mode at room temperature (22–25 °C) with 3–6 MΩ borosilicate glass electrodes backfilled with solution containing (in mM): 90 K acetate, 20 KCl, 40 HEPES, 3 MgCl2, 1 CaCl2, 3 EGTA-KOH, 2 MgATP; pH 7.2.
(§3) The pClamp8 (Molecular Devices) software package was used for data acquisition and Clampfit was used for analysis, along with Graphpad Prism 7.0 (Graphpad).

[7] = system: native M-current in PC12 cells; test: Whole-cell patch clamp of NGF-differentiated PC12 cells; type: cell-based, rat; conditions: 100 µM GABA + 100 µM picrotoxin + 10 µM CGP55845
Procedure: as §1, §2, §3

[8] = system: native M-current in mouse DRG neurons; test: Perforated patch-clamp of dorsal root ganglion neurons; type: cell-based; conditions: 100 µM GABA
Procedure: Adult male mice were purchased from Jackson Labs and then housed and used according to a protocol approved by the Institutional Animal Care and Use Committee of University of California, Irvine, and consistent with recommendations in the NIH Guide for the Care and Use of Laboratory Animals (8th edition, 2011). […]. DRG neurons were then cultured on poly-L-lysine and laminin-coated plastic coverslips in RPMI 1640 with 10% horse serum and 1% penicillin/streptomycin at 37 °C for 1–4 days before electrophysiological recordings were performed using perforated patch clamp. Amphotericin B (VWR, Radnor, PA) was dissolved in DMSO at 5 mg/ml (stock solution), then diluted to 150–200 µg/ml in intracellular solution and sonicated with a probe sonicator on ice for 5 s, kept at room temperature in the dark, and replaced every hour with a fresh solution from the stock. The working amphotericin solution was backfilled into borosilicate glass electrodes (3–5 MΩ) previously tip-filled to ~0.5 mm with intracellular solution lacking amphotericin B, immediately prior to sealing onto individual neurons. After whole-cell configuration was achieved and capacitance stabilized, whole-cell recordings were performed essentially as described in the prior paragraph, with the following differences: neurons were held at −20 mV to inactivate other channels before the test pulses; offline leak subtraction was performed.

[9] = target: KCNQ3* (expression-optimized KCNQ3-A315T mutant) (Homo sapiens, UniProt O43525, A315T); conditions: for Slope: Ctrl 4.5 ± 0.9; for Normalized tail current V0.5: Ctrl -51.4 ± 1.9; for Non-normalized tail current V0.5: Ctrl -47.5 ± 4.4
Description: as §4, §5

[10] = target: KCNQ1 (Homo sapiens, UniProt P51787); test: Two-electrode voltage clamp (TEVC) in Xenopus oocytes
Description: as §4
Oocytes were placed in a small-volume oocyte bath (Warner) and viewed with a dissection microscope. Chemicals were sourced from Sigma. Bath solution was (in mM): 96 NaCl, 4 KCl, 1 MgCl2, 1 CaCl2, 10 HEPES (pH 7.6). […] Valeric acid was stored as a 5 mM stock in Ringer’s solution at 4 °C and diluted to working concentrations each experimental day. β-hydroxybutyric acid was stored at 4 °C as a 480 mM stock in 100% ethanol and diluted to working concentrations each experimental day. All compounds were introduced to the recording bath via gravity perfusion at a constant flow of 1 ml per min for 3 min prior to recording. Pipettes were of 1–2 MΩ resistance when filled with 3 M KCl. Currents were recorded in response to pulses between −80 mV and +40 mV at 20 mV intervals, or a single pulse to +40 mV, from a holding potential of −80 mV, to yield current-voltage relationships, current magnitude, and for quantifying activation rate. Deactivation was recorded at −80 mV after a single activating pulse to +40 mV, from a holding potential of −80 mV. For wortmannin studies, oocytes were incubated in 30 µM wortmannin for 3 h at 16 °C prior to recording. TEVC data analysis was performed with Clampfit (Molecular Devices) and Graphpad Prism software (GraphPad, San Diego, CA, USA); values are stated as mean ± SEM. […]

[11] = target: homomeric wild-type human KCNQ3 (Homo sapiens, UniProt O43525); test: 3H-GABA radioligand binding (single concentration, cold competition, saturation) in Xenopus oocytes; conditions: cold (unlabeled) GABA 1 mM
Chain of homomeric wild-type human KCNQ3 (O43525 whole entry): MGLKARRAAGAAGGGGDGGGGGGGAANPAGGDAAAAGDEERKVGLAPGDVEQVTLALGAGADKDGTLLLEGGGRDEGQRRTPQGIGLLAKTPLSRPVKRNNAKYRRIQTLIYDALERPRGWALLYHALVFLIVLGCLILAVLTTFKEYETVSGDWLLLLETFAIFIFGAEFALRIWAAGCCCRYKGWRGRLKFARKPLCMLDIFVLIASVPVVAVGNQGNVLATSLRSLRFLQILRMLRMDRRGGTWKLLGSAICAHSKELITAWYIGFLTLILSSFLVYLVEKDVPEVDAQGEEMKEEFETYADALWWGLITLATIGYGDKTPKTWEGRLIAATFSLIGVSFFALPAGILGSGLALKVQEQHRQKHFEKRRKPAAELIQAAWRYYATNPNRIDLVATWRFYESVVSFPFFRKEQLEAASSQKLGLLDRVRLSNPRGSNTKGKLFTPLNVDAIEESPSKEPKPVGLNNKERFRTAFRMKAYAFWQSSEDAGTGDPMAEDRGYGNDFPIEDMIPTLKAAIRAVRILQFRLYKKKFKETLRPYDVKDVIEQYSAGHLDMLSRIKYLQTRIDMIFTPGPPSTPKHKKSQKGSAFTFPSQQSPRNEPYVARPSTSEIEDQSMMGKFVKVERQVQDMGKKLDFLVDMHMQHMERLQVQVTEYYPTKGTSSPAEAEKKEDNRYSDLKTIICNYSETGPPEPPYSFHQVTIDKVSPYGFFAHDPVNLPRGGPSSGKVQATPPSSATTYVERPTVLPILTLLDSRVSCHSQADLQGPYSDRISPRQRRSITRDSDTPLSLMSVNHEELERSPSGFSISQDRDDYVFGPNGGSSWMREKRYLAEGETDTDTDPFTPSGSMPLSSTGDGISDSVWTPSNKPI
Procedure: Defolliculated stage V and VI Xenopus laevis oocytes (Ecocyte Bioscience, Austin, TX) were injected with Kv channel α subunit cRNAs (5–10 ng).
Oocytes were then washed four times in 16 °C ND96, then transferred to individual wells in a 96-well plate and lysed in 0.2% SDS in ND96. Each oocyte lysate was transferred to a scintillation vial containing 5 ml cytoscint scintillation cocktail fluid (MP Biomedicals, Santa Ana, CA). Vials were capped, shaken, and then allowed to sit at room temperature for at least 30 min before scintillation counting in a Beckmann Coulter LS6500 liquid scintillation counter. […] Oocytes were next incubated in 1 ml per group homogenization buffer (in mM, 150 NaCl, 2 CaCl2, 20 Tris, 2% Nonidet P-40) with 2% protease inhibitor cocktail (Pierce) and then lysed with a 20 ml pipette tip, vortexed, centrifuged at 4000 r.p.m. (10 min, 4 °C). The supernatant was mixed in Eppendorf tubes end-over-end overnight at 4 °C with high-capacity streptavidin agarose beads (Thermo Fisher, Huntington Beach, CA) (20 µl per group).
For the binding competition assay, the control group was treated as before. […] Each oocyte lysate was transferred to a scintillation vial containing 5 ml cytoscint scintillation cocktail fluid (MP Biomedicals). […] Bmax and Kd values were calculated using automated nonlinear regression analysis in GraphPad prism.

[12] = especially at subthreshold potentials

Question: With NCCCC(=O)O [GABA, γ-aminobutyric acid] as the molecule, how does the “GABA sensitivity of channel activity” value [1] read?
Answer: relatively GABA-insensitive

Question: What about the “Non-normalized tail current V0.5” value ([1]; 0.1 µM GABA) of the same molecule?
Answer: -8.8 ± 4.3 mV

Question: What about the “Normalized tail current V0.5” value ([1]; 0.1 µM GABA) of the same molecule?
Answer: -9.6 ± 0.7 mV

Question: What about the “Non-normalized tail current V0.5” value ([1]; 1 µM GABA) of the same molecule?
Answer: -9.0 ± 4.3 mV

Question: What about the “Normalized tail current V0.5” value ([1]; 1 µM GABA) of the same molecule?
Answer: -9.6 ± 0.8 mV

Question: What about the “Non-normalized tail current V0.5” value ([1]; 10 µM GABA) of the same molecule?
Answer: -9.3 ± 3.7 mV

Question: What about the “Normalized tail current V0.5” value ([1]; 10 µM GABA) of the same molecule?
Answer: -9.8 ± 0.8 mV

Question: And the “Non-normalized tail current V0.5” value ([1]; 100 µM GABA)?
Answer: -9.0 ± 3.8 mV

Question: And the “Normalized tail current V0.5” value ([1]; 100 µM GABA)?
Answer: -10.3 ± 0.8 mV

Question: What about the “Non-normalized tail current V0.5” value ([1]; 1 mM GABA) of the same molecule?
Answer: -8.4 ± 3.4 mV

Question: What about the “Normalized tail current V0.5” value ([1]; 1 mM GABA) of the same molecule?
Answer: -8.8 ± 0.8 mV

Question: And the Slope ([2]; 0.001 µM GABA)?
Answer: 9.4 ± 4.3 mV

Question: And the “Normalized tail current V0.5” value ([2]; 0.001 µM GABA)?
Answer: -41.9 ± 2.9 mV

Question: And the “Non-normalized tail current V0.5” value ([2]; 0.001 µM GABA)?
Answer: -41.8 ± 2.8 mV

Question: And the Slope ([2]; 0.01 µM GABA)?
Answer: 7.6 ± 2.4 mV

Question: What about the “Normalized tail current V0.5” value ([2]; 0.01 µM GABA) of the same molecule?
Answer: -50.1 ± 2.9 mV

Question: And the “Non-normalized tail current V0.5” value ([2]; 0.01 µM GABA)?
Answer: -49.5 ± 2.5 mV

Question: What about the Slope ([2]; 0.1 µM GABA) of the same molecule?
Answer: 7.4 ± 1.2 mV

Question: What about the “Normalized tail current V0.5” value ([2]; 0.1 µM GABA) of the same molecule?
Answer: -53.9 ± 1.7 mV

Question: And the “Non-normalized tail current V0.5” value ([2]; 0.1 µM GABA)?
Answer: -51.3 ± 2.1 mV

Question: What about the Slope ([2]; 1 µM GABA) of the same molecule?
Answer: 7.6 ± 1.2 mV

Question: And the “Normalized tail current V0.5” value ([2]; 1 µM GABA)?
Answer: -54.2 ± 1.6 mV

Question: What about the “Non-normalized tail current V0.5” value ([2]; 1 µM GABA) of the same molecule?
Answer: -51.2 ± 2.6 mV

Question: What about the Slope ([2]; 10 µM GABA) of the same molecule?
Answer: 8.4 ± 1.4 mV

Question: And the “Normalized tail current V0.5” value ([2]; 10 µM GABA)?
Answer: -57.0 ± 1.8 mV

Question: And the “Non-normalized tail current V0.5” value ([2]; 10 µM GABA)?
Answer: -54.5 ± 2.3 mV

Question: What about the Slope ([2]; 100 µM GABA) of the same molecule?
Answer: 8.5 ± 1.5 mV

Question: And the “Normalized tail current V0.5” value ([2]; 100 µM GABA)?
Answer: -57.4 ± 1.8 mV

Question: What about the “Non-normalized tail current V0.5” value ([2]; 100 µM GABA) of the same molecule?
Answer: -54.5 ± 2.7 mV

Question: What about the Slope ([2]; 1 mM GABA) of the same molecule?
Answer: 8.8 ± 1.5 mV

Question: What about the “Normalized tail current V0.5” value ([2]; 1 mM GABA) of the same molecule?
Answer: -58.3 ± 1.8 mV

Question: And the “Non-normalized tail current V0.5” value ([2]; 1 mM GABA)?
Answer: -56.4 ± 2.4 mV

Question: And the “higher GABA sensitivity of KCNQ5 than KCNQ3*” value ([2]; EC50 ratio at −60 mV)?
Answer: 17 fold

Question: What about the EC50 ([2]; at −60 mV) of the same molecule?
Answer: 60 ± 10 nM

Question: What about the effect on channel [2, 12] of the same molecule?
Answer: activates

Question: What about the Slope ([3]; 0.1 µM GABA) of the same molecule?
Answer: 6.4 ± 0.5 mV

Question: And the “Normalized tail current V0.5” value ([3]; 0.1 µM GABA)?
Answer: -29.3 ± 0.88 mV

Question: What about the Slope ([3]; 1 µM GABA) of the same molecule?
Answer: 6.1 ± 0.5 mV

Question: And the “Normalized tail current V0.5” value ([3]; 1 µM GABA)?
Answer: -28.4 ± 0.89 mV

Question: What about the Slope ([3]; 10 µM GABA) of the same molecule?
Answer: 6.1 ± 0.5 mV

Question: What about the “Normalized tail current V0.5” value ([3]; 10 µM GABA) of the same molecule?
Answer: -27.6 ± 0.82 mV

Question: And the Slope ([3]; 100 µM GABA)?
Answer: 6.2 ± 0.4 mV

Question: And the “Normalized tail current V0.5” value ([3]; 100 µM GABA)?
Answer: -27.2 ± 0.67 mV

Question: And the Slope ([3]; 1 mM GABA)?
Answer: 6.4 ± 0.6 mV

Question: And the “Normalized tail current V0.5” value ([3]; 1 mM GABA)?
Answer: -27.3 ± 0.93 mV

Question: What about the “effect on peak current or normalized tail current” value ([3]; GABA 1 mM) of the same molecule?
Answer: no effect

Question: And the “Normalized tail current V0.5” value ([4]; 100 µM GABA, Ctrl 6.1 ± 0.8)?
Answer: 3.3 ± 1.2 mV

Question: What about the “Non-normalized tail current V0.5” value ([4]; 100 µM GABA, Ctrl 6.3 ± 2.6) of the same molecule?
Answer: 3.1 ± 2.7 mV

Question: And the Slope ([4]; 100 µM GABA, Ctrl 14 ± 0.7)?
Answer: 13.2 ± 0.9 mV

Question: And the “effect on KCNQ1-KCNE1 activity” value ([4]; GABA 100 µM)?
Answer: no effect

Question: What about the “effect on resting membrane potential (EM)” value ([4]; GABA 100 µM, unclamped oocytes) of the same molecule?
Answer: does not alter

Question: What about the “effect on endogenous currents or resting membrane potential” value ([5]; GABA 100 µM) of the same molecule?
Answer: no effect

Question: And the “effect on water-injected oocytes” value ([5]; GABA 1 mM)?
Answer: neither did increasing GABA to 1 mM produce any noticeable effects

Question: And the Slope ([6]; Ctrl 14.3 ± 1.6)?
Answer: 16.2 ± 3.0 mV

Question: What about the “Normalized tail current V0.5” value ([6]; Ctrl -2.9 ± 2.7) of the same molecule?
Answer: -17.5 ± 3.7 mV and −17.5 mV

Question: And the Slope ([7]; blockers alone 17.4 ± 3.0)?
Answer: 16.0 ± 3.2 mV

Question: What about the “Normalized tail current V0.5” value ([7]; blockers alone -7.1 ± 7.6) of the same molecule?
Answer: -20.6 ± 4.9 mV

Question: What about the “decrease of deactivating current at −60 mV” value [8] of the same molecule?
Answer: ~ 25%

Question: What about the “mean GABA-dependent change in current” value ([8]; at −20 mV) of the same molecule?
Answer: no mean change

Question: And the “mean GABA-dependent current increase” value ([8]; at −60 mV, picrotoxin + CGP55845 present)?
Answer: threefold

Question: What about the “efficacy of channel activation, KCNQ3* compared to KCNQ5” value [9] of the same molecule?
Answer: more than threefold greater

Question: What about the Slope ([9]; 0.1 µM GABA) of the same molecule?
Answer: 4.6 ± 0.9 mV

Question: What about the “Normalized tail current V0.5” value ([9]; 0.1 µM GABA) of the same molecule?
Answer: -54.2 ± 1.5 mV

Question: What about the Slope ([9]; 1 µM GABA) of the same molecule?
Answer: 4.3 ± 0.8 mV

Question: What about the Slope ([9]; 10 µM GABA) of the same molecule?
Answer: 4.3 ± 3.5 mV

Question: What about the “Non-normalized tail current V0.5” value ([9]; 10 µM GABA) of the same molecule?
Answer: -58.4 ± 2.7 mV

Question: And the “Normalized tail current V0.5” value ([9]; 10 µM GABA)?
Answer: -58.9 ± 1.0 mV

Question: And the Slope ([9]; 100 µM GABA)?
Answer: 4.8 ± 3.0 mV

Question: And the “Non-normalized tail current V0.5” value ([9]; 100 µM GABA)?
Answer: -59.4 ± 2.8 mV

Question: And the “Normalized tail current V0.5” value ([9]; 100 µM GABA)?
Answer: -59.8 ± 0.9 mV

Question: And the Slope ([9]; 1 mM GABA)?
Answer: 4.7 ± 3.3 mV

Question: What about the “Non-normalized tail current V0.5” value ([9]; 1 mM GABA) of the same molecule?
Answer: -59.3 ± 2.5 mV

Question: What about the “Normalized tail current V0.5” value ([9]; 1 mM GABA) of the same molecule?
Answer: -59.6 ± 0.9 mV

Question: And the effect on channel [9, 12]?
Answer: activates

Question: And the “GABA sensitivity of channel activity” value [10]?
Answer: relatively GABA-insensitive

Question: And the “Non-normalized tail current V0.5” value ([10]; 100 µM GABA, Ctrl -30.1 ± 2.2)?
Answer: -32.6 ± 1.9 mV

Question: What about the “Normalized tail current V0.5” value ([10]; 100 µM GABA, Ctrl -34.1 ± 0.9) of the same molecule?
Answer: -34.2 ± 0.8 mV

Question: And the “competition of 3H-GABA binding” value [11]?
Answer: outcompeted

Source: publication PMC5945843, “Direct neurotransmitter activation of voltage-gated potassium channels” (Nature Communications, 2018)
